Converted amounts (≈) assume the structure as drawn. *1 amine or outer side, *2 acyl side, *3 side chain or, on linkers, in order; H or OH if unused. Where a SMILES comes first, the peptide text is derived from it. Bridges are numbered along the chain shown (N, C = ends). [ ]: non-standard residue; d: D form. The star is where a group is joined. ξ: configuration not given here. NMeTrp(4-OMe) = CN[CH](Cc1c[nH]c2cccc(OC)c12)C(=O)O; X1 = O=C(C(N[*:1])C(O)c1ccccc1)[*:2]; ξNMe2Val = CC(C)C(C(=O)*)N(C)C; NMeT = CN[CH](C(=O)O)[CH](C)O; NMeL = CN[CH](CC(C)C)C(=O)O; NMeV = CN[CH](C(=O)O)C(C)C
Experiments:
LC3 = LC3 immunoblotting of macrophage cytolysate; assay type: cell-based, mouse; details: for amount of LC3-II after pre-treatment, compared with treatment with OMS-A or OMS-B (FIG. 7B): pre-treatment with 10 μM 3-MA or 100 nM Baf-A before OMS-A or OMS-B; for amount of LC3-II (FIG. 7A): 1 μM, 5 μM, 10 μM, about 24 hours, macrophage
Experimental: The obtained cytolysate was subjected to immunoblotting using anti-LC3 antibody (available from Cell Signaling) and anti-β-actin antibody (available from Santa Cruz). The results thereof are shown in FIG. 7A (“U” represents “untreated”). Further, in the case of pre-treatment of a macrophage with 10 μM of 3-methyladenine (3-MA), which is an autophagy inhibitor, or 100 nM of Bafilomycin A1 (Baf-A), which is an H^+-ATPase inhibitor, the immunoblot images of the macrophage are shown in FIG. 7B (“U” represents “untreated”, and “SC” represents “solvent control”).

M. marinum = test: Mycobacterium marinum-Drosophila melanogaster infection system; assay type: in vivo; details: for viability of Drosophila melanogaster infected with M. marinum (FIG. 5A): OMS-A 1 μM or 10 μM, AMK 1 μg/ml in culture medium, about 30 days
NF-κB = assay type: cell-based, mouse; details: 1 μM, 5 μM, 10 μM, about 6 hours
LC3B = test: flow cytometry of macrophage with anti-LC3B antibody; assay type: cell-based, mouse; details: 10 μM, about 24 hours
Experimental: Subsequently, a mean fluorescence intensity (MFI) of the macrophage was measured using the anti-LC3B antibody (available from Cell Signaling) according to flow cytometry.

Mtb H37Rv strain = assay type: cell-based, Mycobacterium tuberculosis; details: REMA; for anti-Mycobacterium tuberculosis activity as compared with INH, EMB, and SQ109 (FIG. 2): RFU vs concentration
[1] = tested on: Bone-marrow-derived macrophages (BMDM); test: LC3 puncta formation assay in macrophage; assay type: cell-based, mouse; details: 10 μM, about 24 hours
Experimental: LC3 puncta formation and lipidation assay (Eisuke and Noboru, Autophagy, 2010, vol. 6, p. 764-776), which is mainly used in macrophage autophagy measurement, was performed. 10 μM of OMS-A or 10 μM of OMS-B was added to BMDM prepared in Section 4, and then cultured for about 24 hours. As a negative control, PBS was used. Subsequently, macrophage was stained with 4′,6-diamidino-2-phenylindole (DAPI, available from Sigma) and anti-LC3 antibody (available from Cell Signaling), and the number of LC3 puncta per macrophage was measured. The images of the stained macrophages are shown in FIG. 6A (“UN” represents “untreated”), and the number of LC3 puncta per macrophage are shown in FIG. 6B (**: p<0.01).

Mtb phagosome = test: co-localization of Mtb phagosome with LC3 or LAMP2 in macrophage; assay type: cell-based, mouse; details: 10 μM, about 24 hours, ERFP-Mtb macrophage
macrophage = test: mCherry-EGFP-LC3B autophagic flux in transfected macrophage; details: 10 μM, about 24 hours
Source text: Further, a macrophage was transfected with a retrovirus vector that expresses mCherry-enhanced green fluorescent protein (EGFP)-LC3B. […] Fluorescent images of the transfected macrophage were obtained, which are shown in FIG. 9 (“UN” represented “untreated”, and “N” represents “nucleus”).

[2] = tested on: AMP-activated protein kinase (AMPK) cell signaling pathway; assay type: cell-based, mouse

Compound	amount of LC3-II after pre-treatment, compared with treatment with OMS-A or OMS-B (FIG. 7B) (LC3)	viability of Drosophila melanogaster infected with M. marinum (FIG. 5A) (M. marinum)	NF-κB luciferase activity (FIG. 12B) (NF-κB)	LC3B expression, mean fluorescence intensity (FIG. 8) (LC3B)	CFUs of M. marinum present in Drosophila melanogaster (FIG. 5B) (M. marinum; 1 μM or 10 μM OMS-A, compared with negative control (SC))	MIC50 (bacterial growth 50% MIC) (Mtb H37Rv strain) [nM]	anti-Mycobacterium tuberculosis activity as compared with INH, EMB, and SQ109 (FIG. 2) (Mtb H37Rv strain)	LC3 puncta formation per macrophage (FIGS. 6A, 6B) [1]	co-localization of LAMP2 and Mtb phagosome (FIGS. 10C, 10D) (Mtb phagosome)	co-localization of LC3 and Mtb phagosome (FIGS. 10A, 10B) (Mtb phagosome)	number of red puncta, mCherry-EGFP-LC3B (FIG. 9) (macrophage)	phoshorylation in Ser78 (S79) of ACC (FIGS. 11A, 11B) [2]	phoshorylation in Thr172 of AMPKα (FIGS. 11A, 11B) [2]	amount of LC3-II (FIG. 7A) (LC3)
Cn1cnc(N)c2ncnc1-2 [3-MA, 3-methyladenine, reference compound]	decreased													
NCC[C@H](O)C(=O)N[C@@H]1C[C@H](N)[C@@H](O[C@H]2O[C@H](CN)[C@@H](O)[C@H](O)[C@H]2O)[C@H](O)[C@H]1O[C@H]1O[C@H](CO)[C@@H](O)[C@H](N)[C@H]1O [AMK, amikacin, reference compound]		increased viability												
CO/C1=C\C(C)=C\[C@@H](C)[C@@H](O)[C@@H](C)C/C(C)=C/C=C/[C@H](OC)[C@@H]([C@@H](C)[C@@H](O)[C@H](C)[C@@]2(O)C[C@@H](O)[C@H](C)[C@@H](C(C)C)O2)OC1=O [Baf-A, Bafilomycin A1, reference compound]	increased													
CNC(C(=O)NC(C(=O)NC1C(=O)N(C)C(C(C)O)C(=O)NC(C(C)C)C(=O)N(C)C(CC(C)C)C(=O)NC(C(C)C)C(=O)N(C)C(C(C)C)C(=O)N(C)C(Cc2c[nH]c3cccc(OC)c23)C(=O)NC(C(C)C)C(=O)NC(C(O)c2ccccc2)C(=O)NC(C(C)C)C(=O)OC1C)C(C)C)C(C)C (stereo not drawn) [OMS-A, Ohmyungsamycin A] (H-[NMeV]VT[NMeT]V[NMeL]V[NMeV][NMeTrp(4-OMe)]V[X1]V; ester 3-C; configuration not given here)		increased viability	decreases in a concentration-dependent manner	increased level	decreased in a concentration-dependent manner	57 (≈ 0.0832 µg/mL)	excellent anti-Mycobacterium tuberculosis activity	great	increased	increased	increased	induced	induced	increased as compared with LC3-I
COc1cccc2[nH]cc(CC3C(=O)NC(C(C)C)C(=O)NC(C(O)c4ccccc4)C(=O)NC(C(C)C)C(=O)OC(C)C(NC(=O)C(NC(=O)C(C(C)C)N(C)C)C(C)C)C(=O)N(C)C(C(C)O)C(=O)NC(C(C)C)C(=O)N(C)C(CC(C)C)C(=O)NC(C(C)C)C(=O)N(C)C(C(C)C)C(=O)N3C)c12 (stereo not drawn) [OMS-B, Ohmyungsamycin B] (ξNMe2Val-VT[NMeT]V[NMeL]V[NMeV][NMeTrp(4-OMe)]V[X1]V; ester 2-C; configuration not given here)			decreases in a concentration-dependent manner	increased level		117 (≈ 0.172 µg/mL)	excellent anti-Mycobacterium tuberculosis activity	great	increased	increased	increased	induced	induced	increased as compared with LC3-I

Reference: patent US10702575B2, “Pharmaceutical composition for preventing or treating mycobacterium species infection and method using the same” (Seoul National University R&DB Foundation, priority 2017, dated 2020)
